Consider 14 molecules from ChEMBL document CHEMBL2069272, “Leishmanicidal activities and cytotoxicities of bisnaphthoquinone analogues and naphthol derivatives from Burman Diospyros burmanica” (Bioorg Med Chem, 2012).

Residues, ends and D or L forms follow the SMILES beside them. *: point of attachment. Cbz = O=C(OCc1ccccc1)*

Data set [1] is described as follows: Toxicity against mouse RAW264.7 cells by XTT assay. The data set is classed as cell-based. In general terms: Formazan colour is commonly taken as a measure of viable cells.
The test system of another data set is Leishmania major. Nature of the data set: Antileishmanial activity against Leishmania major promastigotes incubated for 48 hrs by MTT assay. The data set is classed as functional, organism-based.
A short description of data set [2]: Selectivity index, ratio of IC50 for mouse RAW264.7 cells to IC50 for Leishmania major promastigotes. The data set is classed as toxicity, cell-based. Particulars: RAW264.7 cells versus Leishmania major promastigotes, read-out: Ratio IC50.

In the case of `COc1cccc2c1C(=O)C(O)=C(C)C2=O`, the IC50 (in data set [1]; with Leishmania major) was greater than 100 µM throughout.

Consider `COc1ccc(OC)c2c1C(=O)C=C(C)C2=O`, for which the IC50 – broadly, the concentration needed to halve the response being measured – in data set [1] is greater than 100 µM.

Regarding `COc1cc(C)cc2c1C(=O)C=C(C1=C(C)C(=O)c3ccc(O)c(OC)c3C1=O)C2=O` [BURMANIN A], in data set [2], the selectivity ratio was 453. For the same molecule, the IC50 in data set [1] is 24 µM; with Leishmania major, 0.053 µM.

For the molecule `COc1c(C)cc2cccc(OC)c2c1O`, the selectivity ratio in data set [2] was greater than 2.22. Also, the results for the IC50 (in data set [1]; with Leishmania major) were greater than 100 µM and 45 µM, respectively.

`C[C@@H]1[C@H](O)[C@@H](C)/C=C/C=C/C=C/C=C/C=C/C=C/C=C/[C@H](O[C@@H]2O[C@H](C)[C@@H](O)[C@H](N)[C@@H]2O)C[C@@H]2O[C@](O)(C[C@@H](O)C[C@@H](O)[C@H](O)CC[C@@H](O)C[C@@H](O)CC(=O)O[C@H]1C)C[C@H](O)[C@H]2C(=O)O` [AMPHOTERICIN B] displayed an IC50 with Leishmania major of 0.035 µM.

Turning to `COc1cccc2cc(C=O)cc(O)c12`, the IC50 (in data set [1]; in the data set with Leishmania major) was greater than 100 µM each time.

As for `COc1cccc2c1C(=O)C=C(C)C2=O`, the selectivity ratio in data set [2] turned out to be 13.6. For the same molecule, the results for the IC50 (in data set [1]; in the data set on Leishmania major) were 45 µM and 3.3 µM, respectively.

As to `COc1ccc(OC)c2c(O)cc(C)cc12`, the selectivity ratio in data set [2] is greater than 2.63. The IC50 in data set [1] is greater than 100 µM; in the data set with Leishmania major, 38 µM.

For the molecule `COc1cccc2cc(C)cc(O)c12`, in data set [2], the selectivity ratio is greater than 2. For the same molecule, the IC50 was greater than 100 µM in data set [1] and 50 µM in the data set on Leishmania major.

On to `CC(C)C[C@@H](C=O)NC(=O)[C@H](CC(C)C)NC(=O)[C@H](CC(C)C)NC(=O)OCc1ccccc1` [MG-132] (Cbz-Leu-Leu-Leu-aldehyde), for which the concentration for half-maximal inhibition (IC50) in data set [1] is 0.63 µM.

Take `COc1c(C)cc(O)c2c(OC)cccc12`: the IC50 (in data set [1]; in the data set on Leishmania major) was greater than 100 µM throughout.

For the molecule `COc1cc(C)cc2c1C(=O)C=C(c1c(C)cc3ccc(O)c(OC)c3c1O)C2=O` [BURMANIN B], in data set [2], the selectivity ratio amounted to 172. For the same molecule, the IC50 in data set [1] was 31 µM; in the data set on Leishmania major, 0.18 µM.

In the case of `COc1cc(C)cc2c1C(=O)C=C(c1c(C)c(OC)c3ccc(O)c(OC)c3c1O)C2=O` [BURMANIN C], the selectivity ratio in data set [2] was 147. Moreover, the IC50 in data set [1] is 22 µM; in the data set with Leishmania major, 0.15 µM.

Consider `COc1c(O)ccc2c1C(=O)C(C)=CC2=O`, for which the selectivity ratio in data set [2] worked out at 1.03. Besides, the IC50 was 96 µM in data set [1] and 93 µM in the data set on Leishmania major.
